# According to EP3344255B1 (priority 2016, dated 2017):
# Where two headings read alike, the source gives them in different places.
# Assays:
# Format in all cases: cell-based, Acinetobacter baumannii
# [1] = system: A.baumannii bacteria with resistance to colistin; test: Colistin gradient test (E-test) on Mueller Hinton Agar with and without methylene blue
# Description: (§1) Firstly, colistin-susceptible A.baumannii strains obtained from the same passage were subcultured on media (Mueller Hinton Agar) containing 14 mcg/ml methylene blue and without methylene blue and colistin gradient test (E-test) strips were placed on them.
# Later, the same tests were performed on A.baumannii bacteria with resistance to colistin. While there was growth in the medium without methylene blue (Mueller Hinton Agar), there was no growth in the medium containing methylene blue. […] These bacterial varieties with resistance to colistin were tested based on species with different levels of MIC (minimum inhibitory concentrations) for colistin. […] In other words, it's understood these bacteria were inhibited. […] The probable cause of this reduction is that those with MIC values more than 0.5 mcg/ml in the bacterial population were selectively killed by methylene blue. […] However, the inhibition rate for strains with high MIC value (like 32 mcg/ml) was higher than the inhibition rate for strains with low MIC value (like 4-8 mcg/ml). In other words, the susceptiblity to methylene blue is proportional to the colistin resistance levels of colistin-resistant A.baumannii bacteria.
# These effects of inhibition of colistin-resistant A.baumannii bacteria by methylene blue are clearly understood from the appearance on MHA (Mueller Hinton Agar) media. Image 1 and 2 provide the appearance of A.baumannii strains with homogeneous resistance to colistin on MHA (Mueller Hinton Agar) media. […] Images 3 and 4 provide images of heteroresistant A.baumannii strains with resistance to colistin on MHA.
# [2] = system: colistin-susceptible A.baumannii strains; test: as above
# From the text: as §1
# [3] = system: A.baumannii bacteria with resistance to colistin
# Description: as §1
# Later, the same tests were performed on A.baumannii bacteria with resistance to colistin. […] These bacterial varieties with resistance to colistin were tested based on species with different levels of MIC (minimum inhibitory concentrations) for colistin.
# [4] = system: colistin-susceptible A.baumannii strains; test: Growth on Mueller Hinton Agar with and without methylene blue; conditions: 14 mcg/ml methylene blue in Mueller Hinton Agar
# From the text: as §1
Molecule,"MIC ([1]; 14 mcg/ml methylene blue on MHA, heteroresistant strain, outer zone (MIC 2 mcg/ml before)) [µg/mL]","MIC ([1]; MHA without methylene blue, heteroresistant strain, internal zone (Image 3)) [µg/mL]","MIC ([1]; MHA without methylene blue, heteroresistant strain, outer zone (Image 3)) [µg/mL]","MIC ([1]; MHA without methylene blue, strain with homogeneous resistance to colistin (Image 1)) [µg/mL]","MIC (minimum inhibitory concentration) ([1]; with methylene blue, bacteria with low levels of colistin resistance (MIC 1 or 3 mcg/ml before)) [µg/mL]","MIC (minimum inhibitory concentration) ([1]; without methylene blue, bacteria with high levels of colistin resistance) [µg/mL]","regression of colistin MIC ([2]; medium containing methylene blue vs without, colistin susceptible strains) [µg/mL]","growth inhibition ([3]; 14 mcg/ml methylene blue on MHA, heteroresistant strain, internal zone with colistin MIC 32 mcg/ml)","growth inhibition ([3]; 14 mcg/ml methylene blue on MHA, homogeneously resistant strain with colistin MIC 32 mcg/ml (Image 2))","growth ([3]; medium containing methylene blue (14 mcg/ml), colistin resistant bacteria, growth in medium without methylene blue)","growth inhibition ([3]; methylene blue medium, bacteria with high levels of colistin resistance (MIC value 32 mcg/ml))","growth inhibition ([3]; methylene blue medium, bacteria with low levels of colistin resistance (MIC value 1 or 3 mcg/ml))","inhibitory effect on bacterial subpopulations ([3]; methylene blue solution, all subpopulations with colistin MIC value above 0.5 mcg/ml)","increase of susceptibility to colistin ([2]; effect of methylene blue, strains with colistin MIC values of 0.5 mcg/ml or less)","susceptibility of A.baumannii strain to colistin ([2]; medium containing 14 mcg/ml methylene blue, colistin susceptible strains)",growth inhibition [4]
Colistin (polymyxin E),0.5,32,2,32,0.5,32,~0.5,–,–,–,–,–,–,–,–,–
CN(C)c1ccc2nc3ccc(=[N+](C)C)cc-3sc2c1 [methylene blue],–,–,–,–,–,–,–,totally inhibited,completely inhibited,no growth,completely stopped growth,did not completely stop growing,inhibitory effects,no increased susceptibility,slightly increased,did not inhibit growth
